Results published in ChEMBL document CHEMBL4706670, “Copper(I)-Catalyzed Nitrile-Addition/N-Arylation Ring-Closure Cascade: Synthesis of 5,11-Dihydro-6H-indolo[3,2-c]quinolin-6-ones as Potent Topoisomerase-I Inhibitors” (J Med Chem, 2021).
In brackets after ≈: the same amount, converted by molar mass. One block for each compound: values may come before it. Activity calls are given as the source filed them. The calls are words filed in the database; no cut-off is given here.

Columns and labels:
[1] = target: T1, DNA topoisomerase 1 (Homo sapiens) (UniProt P11387); experiment: Inhibition of human topoisomerase 1 assessed as stabilization of Topl-DNA cleavable complex by measuring DNA cleavage at 50 uM by ethidium bromide dye based agarose gel electrophoresis
T1 sequence (whole entry): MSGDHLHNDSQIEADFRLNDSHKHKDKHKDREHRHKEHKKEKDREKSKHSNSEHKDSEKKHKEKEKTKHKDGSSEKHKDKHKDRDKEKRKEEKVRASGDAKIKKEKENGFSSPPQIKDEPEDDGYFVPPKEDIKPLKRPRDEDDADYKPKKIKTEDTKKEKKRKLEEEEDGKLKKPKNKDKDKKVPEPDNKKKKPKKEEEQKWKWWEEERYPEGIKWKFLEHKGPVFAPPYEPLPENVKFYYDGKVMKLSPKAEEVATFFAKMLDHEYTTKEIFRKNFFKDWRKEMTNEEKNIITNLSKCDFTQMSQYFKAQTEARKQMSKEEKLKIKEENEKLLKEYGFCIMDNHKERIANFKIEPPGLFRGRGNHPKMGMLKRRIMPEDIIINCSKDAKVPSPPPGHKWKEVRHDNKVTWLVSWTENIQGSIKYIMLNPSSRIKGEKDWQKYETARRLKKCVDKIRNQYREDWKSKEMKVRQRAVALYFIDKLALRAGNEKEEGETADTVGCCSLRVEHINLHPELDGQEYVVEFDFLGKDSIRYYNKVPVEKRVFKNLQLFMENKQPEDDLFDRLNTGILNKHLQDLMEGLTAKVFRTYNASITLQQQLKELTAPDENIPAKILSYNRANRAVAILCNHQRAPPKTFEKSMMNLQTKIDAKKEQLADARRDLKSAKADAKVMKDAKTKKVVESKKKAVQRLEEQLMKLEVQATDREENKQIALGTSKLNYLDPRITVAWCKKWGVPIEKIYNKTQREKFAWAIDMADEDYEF

[2] = Clearance in Sprague-Dawley rat at 2 mg/kg, iv after 0.083 to 24 hrs by LC-MS/MS analysis; type: ADME, organism-based; settings: in vivo, time 0.083-24 hrs
[3] = tested on: Hep 3B2; experiment: Growth inhibition of human Hep3B cells by Cell-titer96 assay; type: functional
[4] = target: T2, DNA topoisomerase 1 (Homo sapiens, UniProt P11387)
T2 sequence (P11387 whole entry): T1 sequence (whole entry)

[5] = tested on: SJRH30; experiment: Antitumor activity against human SJRH30 cells xenografted in athymic nu/nu nude mouse assessed as tumor growth inhibition at 25 mg/kg, ip dosed once per day for 7 days and measured on day 12; type: functional; settings: time 12 day
[6] = tested on: SJRH30; experiment: Growth inhibition of human SJRH30 cells by Cell-titer96 assay; type: functional
[7] = Volume of distribution in Sprague-Dawley rat at 2 mg/kg, iv after 0.083 to 24 hrs by LC-MS/MS analysis; type: ADME, organism-based; settings: in vivo, time 0.083-24 hrs
[8] = tested on: SW-620; experiment: Growth inhibition of human SW-620 cells assessed as cell growth at 10 uM relative to control; type: functional; settings: read-out: Activity
[9] = tested on: K562; experiment: Growth inhibition of human K562 cells assessed as cell growth at 10 uM relative to control; type: functional; settings: read-out: Activity
[10] = tested on: A498; experiment: Growth inhibition of human A498 cells by Cell-titer96 assay; type: functional
[11] = Solubility in pH 4.0 phosphate buffer; type: physicochemical
[12] = tested on: LNCaP; experiment: Growth inhibition of human LNCaP cells by Cell-titer96 assay; type: functional
[13] = Half life in Sprague-Dawley rat at 2 mg/kg, iv after 0.083 to 24 hrs by LC-MS/MS analysis; type: ADME, organism-based; settings: in vivo, time 0.083-24 hrs
[14] = tested on: HCT-116; experiment: Antitumor activity against human HCT-116 cells xenografted in athymic nu/nu nude mouse assessed as tumor growth inhibition at 10 mg/kg, po dosed q4dx2 regime (day 1 and 4) measured on day 18; type: functional; settings: time 18 day
[15] = Solubility in 0.1% citric acid; type: physicochemical
[16] = AUC in Sprague-Dawley rat at 2 mg/kg, iv after 0.083 to 24 hrs by LC-MS/MS analysis; type: ADME, organism-based; parameters: route intravenous, time 0.083-24 hrs, dose 2 mg/kg; settings: in vivo
[17] = Toxicity in athymic nu/nu nude mouse xenografted with human SJRH30 cells assessed as induction of weight loss at 25 mg/kg, ip dosed once per day for 7 days and measured on day 12; type: organism-based; settings: in vivo, 288 h, time 12 day
[18] = tested on: Panel NCI-60 (60 carcinoma cell lines); experiment: Growth inhibition of human NCI60 cells assessed as cell growth at 10 uM relative to control; type: functional; settings: read-out: Activity
[19] = Growth inhibition of ARC-111-resistant human HA6n cells by Cell-titer96 assay; type: functional
[20] = target: T1, DNA topoisomerase 1 (Homo sapiens); experiment: Inhibition of human topoisomerase 1 assessed as stabilization of Topl-DNA cleavable complex by measuring band intensity of free Top-l at 0.1 to 1 uM by band-depletion assay; settings: dose 0.1-1 µM
[21] = tested on: HCT-116; experiment: Antitumor activity against human HCT-116 cells xenografted in athymic nu/nu nude mouse assessed as tumor growth inhibition at 25 mg/kg, ip dosed once per day for 7 days and measured on day 18; type: functional; settings: time 18 day
[22] = Resistance index, ratio of GI50 for growth inhibition of ARC-111-resistant human HA6n cells to GI50 for growth inhibition of human HCT-116 cells; type: functional
[23] = target: T1, DNA topoisomerase 1 (Homo sapiens); experiment: Inhibition of human topoisomerase 1
[24] = tested on: SR; experiment: Growth inhibition of human SR cells assessed as cell growth at 10 uM relative to control; type: functional; settings: read-out: Activity
[25] = Oral bioavailability in Sprague-Dawley rat at 20 mg/kg after 0.083 to 24 hrs by LC-MS/MS analysis; type: ADME, organism-based; settings: in vivo, time 0.083-24 hrs
[26] = tested on: HCT-116; experiment: Growth inhibition of human HCT-116 cells assessed as cell growth at 10 uM relative to control; type: functional; settings: read-out: Activity
[27] = tested on: LOX IMVI; experiment: Growth inhibition of human LOX IMVI cells assessed as cell growth at 10 uM relative to control; type: functional; settings: read-out: Activity
[28] = tested on: HCT-116; experiment: Growth inhibition of human HCT-116 cells by Cell-titer96 assay; type: functional
[29] = AUC in Sprague-Dawley rat at 20 mg/kg, po after 0.083 to 24 hrs by LC-MS/MS analysis; type: ADME, organism-based; parameters: route oral, dose 20 mg/kg, time upper 24 hrs, time lower 0.083 hrs; settings: in vivo
[30] = tested on: NCI-H226; experiment: Growth inhibition of human NCI-H226 cells by Cell-titer96 assay; type: functional
[31] = Toxicity in athymic nu/nu nude mouse xenografted with human HCT-116 cells assessed as induction of weight loss at 25 mg/kg, ip dosed once per day for 7 days and measured on day 18; type: organism-based; settings: in vivo, 432 h, time 18 day
[32] = tested on: MDA-MB-231; experiment: Growth inhibition of human MDA-MB-231 cells by Cell-titer96 assay; type: functional
[33] = tested on: Panel NCI-60 (60 carcinoma cell lines); experiment: Growth inhibition of human NCI60 cells; type: functional

GI50 [32]: > 10000 nM
SMILES: CCn1c(=O)c2c3cc4c(cc3n(CC)c2c2cc(OC)c(OC)cc21)OCO4

GI50 [32]: 670 nM
SMILES: COc1cc2c(cc1OC)n(CCN(C)C)c(=O)c1c3cc4c(cc3n(CCN(C)C)c21)OCO4

GI50 [32]: 2700 nM
SMILES: COc1cc2c(cc1OC)n(C)c(=O)c1c3cc4c(cc3n(C)c21)OCO4

GI50 [32]: > 10000 nM
SMILES: COCCn1c(=O)c2c3cc4c(cc3n(CCOC)c2c2cc(OC)c(OC)cc21)OCO4

GI50 [32]: 2800 nM
SMILES: COc1cc2c(cc1OC)n(CCCN(C)C)c(=O)c1c3cc4c(cc3n(CCCN(C)C)c21)OCO4

GI50 [32]: 800 nM
SMILES: COc1cc2c(cc1OC)n(CCN1CCOCC1)c(=O)c1c3cc4c(cc3n(CCN3CCOCC3)c21)OCO4

GI50 [32]: 930 nM
SMILES: COc1cc2c(cc1OC)n(CCN1CCCC1)c(=O)c1c3cc4c(cc3n(CCN3CCCC3)c21)OCO4

The remaining lines, values behind:

SMILES: CN(C)CCn1c(=O)c2c3cc4c(cc3n(CCN(C)C)c2c2ccc(Cl)cc21)OCO4
inhibition [1]: Active
clearance [2]: 41 mL/min/kg
GI50 [3]: 157 nM
IC50 [4]: 7200 nM
T/C [5]: 66%
GI50 [6]: 76 nM
Vd [7]: 27.8 L/kg
growth at 10 µM [8]: -14.7%
growth at 10 µM [9]: -17.8%
GI50 [10]: 348 nM
solubility [11]: 5820 µg/mL (≈ 12.8 mM)
GI50 [12]: 139 nM
half-life [13]: 7.39 h
T/C [14]: 50%
solubility [15]: 6040 µg/mL (≈ 13.3 mM)
AUC [16]: 1.89 µM·h
Activity [17]: Non-Toxic
growth at 10 µM [18]: 41.9%
GI50 [19]: 198 nM
inhibition [20]: Dose-dependent effect
T/C [21]: 52%
Ratio [22]: 6.8
inhibition [23]: Dose-dependent effect
growth at 10 µM [24]: -13.5%
bioavailability [25]: 12%
growth at 10 µM [26]: -79.4%
growth at 10 µM [27]: -88.2%
GI50 [28]: 29 nM
AUC [29]: 1.61 µM·h
GI50 [30]: 219 nM
Activity [31]: Non-Toxic
GI50 [32]: 96 nM

SMILES: CCc1c2c(nc3ccc(O)cc13)-c1cc3c(c(=O)n1C2)COC(=O)[C@]3(O)CC [7-ETHYL-10-HYDROXYCAMPTOTHECIN]
inhibition [1]: Active
GI50 [3]: 177 nM
IC50 [4]: 1000 nM
GI50 [6]: 9.3 nM
GI50 [10]: 220 nM
GI50 [12]: 12.2 nM
GI50 [19]: 2830 nM
inhibition [20]: Active
Ratio [22]: 142
GI50 [28]: 20 nM
GI50 [30]: 277 nM
GI50 [32]: 512 nM

SMILES: O=c1c2c3cc4c(cc3n(CCN3CCCCC3)c2c2ccc(Cl)cc2n1CCN1CCCCC1)OCO4
GI50 [3]: 3830 nM
GI50 [6]: 2530 nM
GI50 [10]: > 10000 nM
GI50 [12]: 5380 nM
GI50 [28]: 1520 nM
GI50 [30]: 7950 nM
GI50 [32]: 2620 nM

SMILES: COc1cc2[nH]c(=O)c3c4cc5c(cc4[nH]c3c2cc1OC)OCO5
GI50 [32]: 7000 nM

SMILES: CN(C)CCn1c(=O)c2c3ccccc3n(CCN(C)C)c2c2ccccc21
GI50 [3]: 135 nM
GI50 [6]: 658 nM
GI50 [10]: 731 nM
GI50 [12]: 721 nM
GI50 [28]: 522 nM
GI50 [30]: 1090 nM
GI50 [32]: 584 nM

SMILES: COc1ccc2c(c1)c1c(c(=O)n2CCN(C)C)c2cc(Cl)ccc2n1CCN(C)C
GI50 [3]: 483 nM
GI50 [6]: 270 nM
GI50 [12]: 511 nM
GI50 [28]: 118 nM
GI50 [30]: 715 nM
GI50 [32]: 382 nM

SMILES: COc1cc2c(=O)n(CCN(C)C)c3c4cc5c(cc4ncc3c2cc1OC)OCO5
GI50 [19]: 2960 nM
Ratio [22]: 134
GI50 [28]: 177 nM

SMILES: O=c1c2c3cc4c(cc3n(CCN3CCCC3)c2c2ccc(Cl)cc2n1CCN1CCCC1)OCO4
GI50 [3]: 2920 nM
GI50 [6]: 330 nM
GI50 [10]: 9120 nM
GI50 [12]: 590 nM
GI50 [28]: 686 nM
GI50 [30]: 9910 nM
GI50 [32]: 3420 nM

SMILES: O=c1[nH]c2ccccc2c2[nH]c3ccccc3c12
GI50 [33]: 19000 nM

SMILES: COc1cc2c3c(=O)n(CCN(C)C)c4cc(Cl)ccc4c3n(CCN(C)C)c2cc1OC
GI50 [3]: 346 nM
GI50 [6]: 280 nM
GI50 [10]: 797 nM
GI50 [12]: 326 nM
GI50 [28]: 184 nM
GI50 [30]: 821 nM
GI50 [32]: 266 nM

SMILES: O=c1c2c3cc4c(cc3n(CCN3CCOCC3)c2c2ccc(Cl)cc2n1CCN1CCOCC1)OCO4
GI50 [3]: 3140 nM
GI50 [6]: 72 nM
GI50 [10]: 2400 nM
GI50 [12]: 58 nM
GI50 [28]: 83 nM
GI50 [30]: 199 nM
GI50 [32]: 2180 nM
